According to paper PMC6862323, “Substitution of Arginine 120 in Human D-Amino Acid Oxidase Favors FAD-Binding and Nuclear Mistargeting” (Frontiers in Molecular Biosciences, 2019):

What was measured:
[1] = test system: U87 glioblastoma cells; experiment: Confocal analysis of cellular distribution of EYFP-hDAAO variants in transiently transfected U87 cells; assay type: cell-based, human
Method: Human U87 glioblastoma cells (ATCC) were cultured in DMEM supplemented with 10% fetal bovine serum, 1 mM sodium pyruvate, 2 mM L-glutamine, 1% non-essential amino acids, 1% penicillin/streptomycin, and 1% amphotericin B (Euroclone), at 37°C in 5% CO2. The cells were transfected either with the pEYFP-hDAAO-C3 construct (for the expression of the wild-type enzyme downstream of the enhanced yellow fluorescent protein, EYFP) (Sacchi et al., [2008], [2011]), the pEYFP-hDAAO(R120L)-C3, or the pEYFP-hDAAO(R120E)-C3 expression vectors. The latter constructs were obtained by mutagenesis using the QuikChange Lightning Site-Directed Mutagenesis Kit (Agilent), and the following primers: 5′-[…]-3′ and 5′-[…]-3′ for the R120E substitution, and 5-[…]-3′ and 5′-[…]-3′ for the R120L substitution.
For transient transfection, 2 ×10^4 cells were seeded into eight-well chamber slides (Sarstedt). At 24 h after seeding, cells were transfected with 2 μg plasmid DNA using a 4:1 ratio of FuGENE transfection reagent (Promega) to DNA. Then, 12.5 μL of transfection mix was added to 500 μL medium per well. Protein expression levels were monitored by using a fluorescence microscope (Olympus IX51) equipped with a FITC filter and by Western blot analysis using an anti-hDAAO antibody (Davids Biotechnologie) (Sacchi et al., [2008], [2011]).
At 24, 48, and 72 h after transfection, cells were washed twice with PBS and fixed with ice-cold 4% p-formaldehyde and 4% sucrose for 10 min at room temperature. After fixation, cells were washed twice with PBS and blocked by incubation in PBS supplemented with 0.2% Triton X-100 and 4% horse serum for 30 min at room temperature. Peroxisomes were stained using rabbit polyclonal anti-PMP70 (peroxisomal membrane protein 70, Sigma), diluted 1:500 in PBS, 0.1% Triton X-100, and 4% horse serum overnight at 4°C; they were then washed twice in PBS and 1% horse serum and incubated for 1 h at room temperature (light protected) with goat anti-rabbit Dylight 550 secondary antibodies (Abcam) diluted 1:400 in PBS, 0.1% Triton X-100, and 1.5% horse serum. Cells were then extensively washed in PBS and nuclei were stained with DRAQ5™ (Thermo Scientific) and diluted 1:500 in PBS for 10 min at room temperature in the dark. Cells were washed three times with PBS and stored in PBS at 4°C until imaging.
Immunostained cells were imaged using an inverted laser scanning confocal microscope (TCS SP5, Leica Microsystems), equipped with a 63.0 ×1.25 NA plan apochromatic oil immersion objective. Confocal image stacks were acquired using the Leica TCS software with a sequential mode to avoid interference between each channel and without saturating any pixel. Cells in 10–15 non-magnified optical fields were analyzed for each condition (i.e., different EYFP-hDAAO expression constructs at different times after transfection). The fluorescence signal corresponding to the overexpressed EYFP-hDAAO variants was monitored by excitation at 514 nm (yellow channel); the peroxisomal and nuclear cellular compartments were imaged by excitation at 546 nm (red channel) and 647 nm (blue channel), respectively.
U87 glioblastoma cells were transiently transfected with a pEYFP-hDAAO-C3 plasmid encoding for EYFP-hDAAO chimeric proteins harboring R, E, or L at position 120 of the flavoenzyme. […] A similar amount of transfected cells (expressing EYFP-hDAAO protein) was obtained for all three constructs (Table 4). The percentage of cells showing a cytosolic, peroxisomal, and nuclear localization of the flavoenzyme was determined by comparing the yellow fluorescence signal of EYFP-hDAAO variants with those of the markers PMP-70 (for peroxisomes) and DRAQ5™ dye (for nuclei, Figure 5). The amount of cytosolic wild-type EYFP-hDAAO decreased with time after transfection (28% of the signal is cytosolic at 72 h vs. 94% at 24 h), as did the amount of nuclear signal (Table 4 and Figure 6). […]

[2] = set-up: method as in Molla et al. (2006) and Caldinelli et al. (2009); conditions: 28 mM D-alanine, pH 8.5, 25°C; ref Molla et al. (2006) and Caldinelli et al. (2009); cited from earlier work

Wild-type: recombinant wild-type human D-amino acid oxidase (His-tagged from E. coli; EYFP-tagged in U87 cells)
hDAAO cellular distribution: A, large cytosolic aggregates detected ([1]; 24 h after transfection): 18.7 % of transfected cells | hDAAO cellular distribution: C, cytosol ([1]; 24 h after transfection): 69.4 % of transfected cells | hDAAO cellular distribution: C/P, mixed, cytosol and peroxisomes ([1]; 24 h after transfection): 13.4 % of transfected cells | hDAAO cellular distribution: N, nucleus ([1]; 24 h after transfection): 14.4 % of transfected cells | hDAAO cellular distribution: P, peroxisomes ([1]; 24 h after transfection): 17.2 % of transfected cells | hDAAO cellular distribution: A, large cytosolic aggregates detected ([1]; 48 h after transfection): 15.4 % of transfected cells | hDAAO cellular distribution: C, cytosol ([1]; 48 h after transfection): 21.2 % of transfected cells | hDAAO cellular distribution: C/P, mixed, cytosol and peroxisomes ([1]; 48 h after transfection): 26.9 % of transfected cells | hDAAO cellular distribution: N, nucleus ([1]; 48 h after transfection): 9.6 % of transfected cells | hDAAO cellular distribution: P, peroxisomes ([1]; 48 h after transfection): 51.9 % of transfected cells | cytosolic signal ([1]; 72 h after transfection): 28% | hDAAO cellular distribution: A, large cytosolic aggregates detected ([1]; 72 h after transfection): 5.6 % of transfected cells | hDAAO cellular distribution: C, cytosol ([1]; 72 h after transfection): 10.4 % of transfected cells | hDAAO cellular distribution: C/P, mixed, cytosol and peroxisomes ([1]; 72 h after transfection): 18.4 % of transfected cells | hDAAO cellular distribution: N, nucleus ([1]; 72 h after transfection): 4.0 % of transfected cells | hDAAO cellular distribution: P, peroxisomes ([1]; 72 h after transfection): 71.2 % of transfected cells | Specific activity [2]: 12.0 U/mg protein
